TGI and GI50 data for 9 compounds are collected here from PubChem BioAssay (NCI).

Values joined by “and” are separate entries in the source; they are usually repeats but may differ in a detail not shown here. Equal values may be shown once.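 Exposure lasted 48 hours, with cells grown in 96-well plates and compounds tested at five concentrations. At the GI50, growth is halved. The concentration for full growth arrest is given as TGI.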

Test systems include RPMI-8226 leukemia; U251 CNS; HL-60(TB) leukemia; HOP-62 NSCLC; K-562 leukemia; NCI-H23 lung; SK-OV-3 ovarian; CCRF-CEM leukemia; UACC-257 melanoma; NCI-H522 lung.
Common to all, as to assay: growth of human tumour cells (NCI), 48 h

In the case of `N#CC(C(=O)/C(=N/N)C(C#N)c1ccccc1)c1ccccc1` (centres undefined), the TGI in the experiment on RPMI-8226 leukemia, with U251 CNS, with HL-60(TB) leukemia, in the experiment with HOP-62 NSCLC, in the experiment on K-562 leukemia and in the experiment with NCI-H23 lung was over 100 µM each time. Moreover, the TGI in the experiment on SK-OV-3 ovarian, with CCRF-CEM leukemia, with UACC-257 melanoma and in the experiment on NCI-H522 lung was over 100 µM in each case.

For the compound `CCC/C(=N/NC(=O)C(N)=O)C(CC)C(=O)CCC(=O)N(Cc1ccccc1)Cc1ccccc1` (centres undefined), the TGI in the experiment with RPMI-8226 leukemia, with U251 CNS, in the experiment on HL-60(TB) leukemia, in the experiment with HOP-62 NSCLC, in the experiment on K-562 leukemia and in the experiment on NCI-H23 lung was over 100 µM in each case. The TGI in the experiment on SK-OV-3 ovarian, in the experiment with CCRF-CEM leukemia, in the experiment with UACC-257 melanoma and in the experiment on NCI-H522 lung was over 100 µM throughout.

In the case of `CCOC(=O)c1[nH]c(Br)c(-c2ccc(Br)cc2)c1Br`, the GI50 in the experiment with RPMI-8226 leukemia was 0.357 µM; with U251 CNS, 0.394 µM; with HL-60(TB) leukemia, 0.207 µM; with HOP-62 NSCLC it was 0.514 µM; with K-562 leukemia, 0.193 µM; in the experiment with NCI-H23 lung it was 2.48 µM. The GI50 in the experiment on SK-OV-3 ovarian was 0.967 µM; in the experiment on CCRF-CEM leukemia, 0.278 µM; in the experiment on UACC-257 melanoma, 0.597 µM; with NCI-H522 lung it was 0.178 µM. For the same compound, the TGI in the experiment on RPMI-8226 leukemia is 3.92 µM; in the experiment with U251 CNS it was 3.55 µM and 1.93 µM; in the experiment with HL-60(TB) leukemia, 0.596 µM; with HOP-62 NSCLC it was 4.74 µM and 2.81 µM; with K-562 leukemia it was 1.12 µM; in the experiment on NCI-H23 lung, 6.94 µM and 14.3 µM. Moreover, the TGI in the experiment with SK-OV-3 ovarian is 6.28 µM; in the experiment with CCRF-CEM leukemia, 1.11 µM; in the experiment on UACC-257 melanoma it was 42.9 µM; with NCI-H522 lung, 3.42 µM and 0.52 µM.

For `Nc1ncnc2c1nc(Cl)n2C1OC2COP(=O)(O)OC2C1O` (centres undefined), the TGI with RPMI-8226 leukemia was over 300 µM; with U251 CNS it was over 300 µM; in the experiment on HL-60(TB) leukemia, over 209 µM; with HOP-62 NSCLC, 163 µM and > 100 µM; with K-562 leukemia, over 300 µM; in the experiment on NCI-H23 lung, over 300 µM. Moreover, the TGI in the experiment on SK-OV-3 ovarian, with CCRF-CEM leukemia, in the experiment on UACC-257 melanoma and in the experiment with NCI-H522 lung was over 300 µM throughout.

As to `O=C1CCCCCCCC/C=C\CC(c2ccco2)O1` (centres undefined), the GI50 was 43.2 µM in the experiment on RPMI-8226 leukemia; 19.5 µM in the experiment with U251 CNS; 12 µM in the experiment on HL-60(TB) leukemia; 15.6 µM with HOP-62 NSCLC; 23.5 µM with K-562 leukemia; 35.8 µM in the experiment with NCI-H23 lung. The GI50 with SK-OV-3 ovarian is 32.7 µM; with CCRF-CEM leukemia, 36 µM; in the experiment with UACC-257 melanoma, 24.2 µM; in the experiment on NCI-H522 lung, 18.1 µM. Moreover, the TGI is over 100 µM in the experiment on RPMI-8226 leukemia; 48.2 µM with U251 CNS; 31 µM with HL-60(TB) leukemia; 62.3 µM in the experiment with HOP-62 NSCLC; 73.8 µM in the experiment with K-562 leukemia; over 100 µM with NCI-H23 lung. The TGI in the experiment with SK-OV-3 ovarian is over 100 µM; with CCRF-CEM leukemia it was over 100 µM; in the experiment on UACC-257 melanoma, 72.5 µM; in the experiment with NCI-H522 lung, 47.2 µM.

Consider `CC(C)(O)CS(=O)(=O)Nc1ccc2c(c1)CCN(C(=O)COc1cccnc1)C2`, for which the GI50 in the experiment with RPMI-8226 leukemia is 0.799 µM; with U251 CNS, over 62.7 µM; in the experiment with HL-60(TB) leukemia, over 100 µM; in the experiment with HOP-62 NSCLC, 99.4 µM; with K-562 leukemia, 0.0652 µM; with NCI-H23 lung it was over 100 µM. The GI50 was over 100 µM in the experiment on SK-OV-3 ovarian, 1.02 µM with CCRF-CEM leukemia and over 100 µM in the experiment with UACC-257 melanoma. Also, the TGI in the experiment on RPMI-8226 leukemia, in the experiment with U251 CNS, in the experiment on HL-60(TB) leukemia, with HOP-62 NSCLC, in the experiment with K-562 leukemia and with NCI-H23 lung was over 100 µM in each case. Further, the TGI in the experiment with SK-OV-3 ovarian, in the experiment on CCRF-CEM leukemia, in the experiment with UACC-257 melanoma and in the experiment on NCI-H522 lung was over 100 µM in each case.

For the compound `C=C(CN1C(=O)[C@H]2CCCN2C(=O)c2ccccc21)c1ccc(C(=O)O)cc1`, the GI50 in the experiment with RPMI-8226 leukemia, in the experiment on U251 CNS, in the experiment with HL-60(TB) leukemia, in the experiment on HOP-62 NSCLC, in the experiment with K-562 leukemia and with NCI-H23 lung was over 100 µM in each case. The GI50 with SK-OV-3 ovarian, with CCRF-CEM leukemia, in the experiment on UACC-257 melanoma and in the experiment with NCI-H522 lung was over 100 µM each time. Also, the TGI in the experiment with RPMI-8226 leukemia, in the experiment on U251 CNS, in the experiment with HL-60(TB) leukemia, with HOP-62 NSCLC, in the experiment on K-562 leukemia and in the experiment with NCI-H23 lung was over 100 µM each time. Further, the TGI with SK-OV-3 ovarian, in the experiment on CCRF-CEM leukemia, with UACC-257 melanoma and in the experiment with NCI-H522 lung was over 100 µM throughout.

For `O=C1/C(=C/c2ccccc2)CN(C(=O)c2cccnc2)C/C1=C\c1ccccc1`, the GI50 was 0.318 µM in the experiment on RPMI-8226 leukemia; 0.435 µM with U251 CNS; 2.34 µM with HL-60(TB) leukemia; 3.02 µM in the experiment on HOP-62 NSCLC; 0.347 µM in the experiment with K-562 leukemia; 1.83 µM in the experiment on NCI-H23 lung. Besides, the GI50 in the experiment with SK-OV-3 ovarian is 3.52 µM; in the experiment on CCRF-CEM leukemia it was 0.558 µM; in the experiment with UACC-257 melanoma it was 3.2 µM; with NCI-H522 lung, 1.57 µM. In addition, the TGI in the experiment on RPMI-8226 leukemia was 1.44 µM; in the experiment with U251 CNS, 2.41 µM; in the experiment with HL-60(TB) leukemia, 11.5 µM; in the experiment with HOP-62 NSCLC it was 10.4 µM; in the experiment on K-562 leukemia it was over 100 µM; in the experiment with NCI-H23 lung, 5.19 µM. Further, the TGI in the experiment on SK-OV-3 ovarian is 11.6 µM; with CCRF-CEM leukemia, 6.05 µM; in the experiment on UACC-257 melanoma, 11 µM; with NCI-H522 lung, 3.66 µM.

On to `Cc1cc2nc3c4cc(N)ccc4n(CCN(C)C)c3nc2cc1C`, for which the GI50 with RPMI-8226 leukemia was 0.606 µM; with U251 CNS, 0.613 µM; in the experiment with HL-60(TB) leukemia, 0.947 µM; with HOP-62 NSCLC, 0.687 µM; with K-562 leukemia, 0.421 µM; in the experiment on NCI-H23 lung it was 0.981 µM. The GI50 in the experiment on SK-OV-3 ovarian is 1.92 µM; in the experiment with CCRF-CEM leukemia it was 0.891 µM; in the experiment on UACC-257 melanoma it was 1.21 µM; with NCI-H522 lung, 0.721 µM. The TGI with RPMI-8226 leukemia turned out to be 4.86 µM; with U251 CNS, 11.1 µM; in the experiment on HL-60(TB) leukemia, 4.24 µM; with HOP-62 NSCLC, 14.7 µM; in the experiment with K-562 leukemia, 8.98 µM; in the experiment on NCI-H23 lung, 3.73 µM. In addition, the TGI with SK-OV-3 ovarian came to 16.4 µM; with CCRF-CEM leukemia, 17.6 µM; with UACC-257 melanoma it was 5.14 µM; in the experiment on NCI-H522 lung, 5.63 µM.
